Key:
Test in all cases: relative viability vs DMSO control (72 h) (fraction); higher = more viable cells
SW872 = system: SW872
Summary of the method: (§1)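 Sarcoma cell lines went into 384-well plates at densities chosen to reach 80–90% confluence. After 24 h, each well received 2.5 µl of serially diluted compound, with source plates running from 10 mM to 0.0002 mM, and the plates were kept 72 h at 37 °C, 5% CO2, alongside 0.1% DMSO vehicle and a 5 µM positive control. Relative viability was derived from ATPLite readings as percent growth and averaged over up to triplicate wells. The data were then rescaled so that 1 stands for full and 0 for none.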

KHOS-240S = system: KHOS-240S
Summary of the method: as §1

SK-LMS-1 = system: SK-LMS-1
Summary of the method: as §1

SW1353 = system: SW1353
Summary of the method: as §1

RD-ES = system: RD-ES
Summary of the method: as §1

HT1080 = system: HT1080
Summary of the method: as §1

RD = system: RD
Summary of the method: as §1

SYO-1 = system: SYO-1
Summary of the method: as §1

G401 = system: G401
Summary of the method: as §1

HS729 = system: HS729
Summary of the method: as §1

SW684 = system: SW684
Summary of the method: as §1

KHOS-NP = system: KHOS-NP
Summary of the method: as §1

CO[C@@H]1[C@H](N(C)C(=O)c2ccccc2)C[C@H]2O[C@]1(C)n1c3ccccc3c3c4c(c5c6ccccc6n2c5c31)C(=O)NC4 [Midostaurin]
Settings	relative viability
G401, 0.00017 µM	0.948
G401, 0.00051 µM	0.976
G401, 0.00152 µM	0.98
G401, 0.00457 µM	0.969
G401, 0.01372 µM	0.953
G401, 0.04115 µM	0.878
G401, 0.1235 µM	0.854
G401, 0.3704 µM	0.678
G401, 1.111 µM	0.436
G401, 3.333 µM	0.229
G401, 10 µM	0.159
HS729, 0.00017 µM	0.927
HS729, 0.00051 µM	0.913
HS729, 0.00152 µM	0.914
HS729, 0.00457 µM	0.921
HS729, 0.01372 µM	0.874
HS729, 0.04115 µM	0.828
HS729, 0.1235 µM	0.791
HS729, 0.3704 µM	0.684
HS729, 1.111 µM	0.368
HS729, 3.333 µM	0.269
HS729, 10 µM	0.273
HT1080, 0.00017 µM	1.01
HT1080, 0.00051 µM	0.999
HT1080, 0.00152 µM	1.007
HT1080, 0.00457 µM	0.986
HT1080, 0.01372 µM	1.04
HT1080, 0.04115 µM	0.987
HT1080, 0.1235 µM	0.9478
HT1080, 0.3704 µM	0.716
HT1080, 1.111 µM	0.406
HT1080, 3.333 µM	0.31
HT1080, 10 µM	0.288
KHOS-240S, 0.00017 µM	1.04
KHOS-240S, 0.00051 µM	1.04
KHOS-240S, 0.00152 µM	1.03
KHOS-240S, 0.00457 µM	1.04
KHOS-240S, 0.01372 µM	1.02
KHOS-240S, 0.04115 µM	0.937
KHOS-240S, 0.1235 µM	0.797
KHOS-240S, 0.3704 µM	0.536
KHOS-240S, 1.111 µM	0.256
KHOS-240S, 3.333 µM	0.143
KHOS-240S, 10 µM	0.09613
KHOS-NP, 0.00017 µM	1.04
KHOS-NP, 0.00051 µM	1.04
KHOS-NP, 0.00152 µM	1.04
KHOS-NP, 0.00457 µM	1.038
KHOS-NP, 0.01372 µM	1.02
KHOS-NP, 0.04115 µM	1.02
KHOS-NP, 0.1235 µM	0.987
KHOS-NP, 0.3704 µM	0.893
KHOS-NP, 1.111 µM	0.39
KHOS-NP, 3.333 µM	0.257
KHOS-NP, 10 µM	0.271
RD, 0.00017 µM	1.06
RD, 0.00051 µM	1.06
RD, 0.00152 µM	1.07
RD, 0.00457 µM	1.09
RD, 0.01372 µM	1.09
RD, 0.04115 µM	1.05
RD, 0.1235 µM	0.989
RD, 0.3704 µM	0.731
RD, 1.111 µM	0.46
RD, 3.333 µM	0.415
RD, 10 µM	0.42
RD-ES, 0.00017 µM	0.971
RD-ES, 0.00051 µM	0.991
RD-ES, 0.00152 µM	0.982
RD-ES, 0.00457 µM	0.938
RD-ES, 0.01372 µM	0.931
RD-ES, 0.04115 µM	0.923
RD-ES, 0.1235 µM	0.883
RD-ES, 0.3704 µM	0.825
RD-ES, 1.111 µM	0.166
RD-ES, 3.333 µM	0.0737
RD-ES, 10 µM	0.0525
SK-LMS-1, 0.00017 µM	0.981
SK-LMS-1, 0.00051 µM	0.972
SK-LMS-1, 0.00152 µM	0.987
SK-LMS-1, 0.00457 µM	1.02
SK-LMS-1, 0.01372 µM	1.02
SK-LMS-1, 0.04115 µM	0.946
SK-LMS-1, 0.1235 µM	0.793
SK-LMS-1, 0.3704 µM	0.564
SK-LMS-1, 1.111 µM	0.392
SK-LMS-1, 3.333 µM	0.36
SK-LMS-1, 10 µM	0.364
SW684, 0.00017 µM	1.08
SW684, 0.00051 µM	1.05
SW684, 0.00152 µM	1.05
SW684, 0.00457 µM	1.02
SW684, 0.01372 µM	1.04
SW684, 0.04115 µM	1.05
SW684, 0.1235 µM	1.08
SW684, 0.3704 µM	0.863
SW684, 1.111 µM	0.524
SW684, 3.333 µM	0.406
SW684, 10 µM	0.363
SW872, 0.00017 µM	0.976
SW872, 0.00051 µM	1
SW872, 0.00152 µM	0.965
SW872, 0.00457 µM	0.958
SW872, 0.01372 µM	0.945
SW872, 0.04115 µM	0.896
SW872, 0.1235 µM	0.826
SW872, 0.3704 µM	0.592
SW872, 1.111 µM	0.399
SW872, 3.333 µM	0.253
SW872, 10 µM	0.219
SW1353, 0.00017 µM	0.918
SW1353, 0.00051 µM	0.927
SW1353, 0.00152 µM	0.9048
SW1353, 0.00457 µM	0.916
SW1353, 0.01372 µM	0.883
SW1353, 0.04115 µM	0.879
SW1353, 0.1235 µM	0.712
SW1353, 0.3704 µM	0.411
SW1353, 1.111 µM	0.272
SW1353, 3.333 µM	0.229
SW1353, 10 µM	0.218
SYO-1, 0.00017 µM	0.955
SYO-1, 0.00051 µM	0.946
SYO-1, 0.00152 µM	0.941
SYO-1, 0.00457 µM	0.92
SYO-1, 0.01372 µM	0.833
SYO-1, 0.04115 µM	0.755
SYO-1, 0.1235 µM	0.676
SYO-1, 0.3704 µM	0.294
SYO-1, 1.111 µM	0.0535
SYO-1, 3.333 µM	0.0115
SYO-1, 10 µM	0.00107

Cc1ccc(C(=O)OCc2ccc([C@@H](CN)C(=O)Nc3ccc4cnccc4c3)cc2)c(C)c1 [Netarsudil]
Settings	relative viability
G401, 0.00017 µM	0.956
G401, 0.00051 µM	0.985
G401, 0.00152 µM	0.977
G401, 0.00457 µM	0.996
G401, 0.01372 µM	0.9802
G401, 0.04115 µM	0.957
G401, 0.1235 µM	0.968
G401, 0.3704 µM	0.973
G401, 1.111 µM	0.941
G401, 3.333 µM	0.946
G401, 10 µM	0.00503
HS729, 0.00017 µM	0.874
HS729, 0.00051 µM	0.85
HS729, 0.00152 µM	0.899
HS729, 0.00457 µM	0.852
HS729, 0.01372 µM	0.87
HS729, 0.04115 µM	0.896
HS729, 0.1235 µM	0.876
HS729, 0.3704 µM	0.844
HS729, 1.111 µM	0.812
HS729, 3.333 µM	0.8113
HS729, 10 µM	0.224
HT1080, 0.00017 µM	1.03
HT1080, 0.00051 µM	1.02
HT1080, 0.00152 µM	1.043
HT1080, 0.00457 µM	0.994
HT1080, 0.01372 µM	1.03
HT1080, 0.04115 µM	1.01
HT1080, 0.1235 µM	1.03
HT1080, 0.3704 µM	1.04
HT1080, 1.111 µM	1.03
HT1080, 3.333 µM	1.02
HT1080, 10 µM	0.0118
KHOS-240S, 0.00017 µM	1.06
KHOS-240S, 0.00051 µM	1.07
KHOS-240S, 0.00152 µM	1.05
KHOS-240S, 0.00457 µM	1.05
KHOS-240S, 0.01372 µM	1.01
KHOS-240S, 0.04115 µM	1.03
KHOS-240S, 0.1235 µM	0.903
KHOS-240S, 0.3704 µM	0.768
KHOS-240S, 1.111 µM	0.686
KHOS-240S, 3.333 µM	0.541
KHOS-240S, 10 µM	0.0141
KHOS-NP, 0.00017 µM	1.03
KHOS-NP, 0.00051 µM	1.06
KHOS-NP, 0.00152 µM	1.03
KHOS-NP, 0.00457 µM	1.05
KHOS-NP, 0.01372 µM	1.03
KHOS-NP, 0.04115 µM	1.03
KHOS-NP, 0.1235 µM	1
KHOS-NP, 0.3704 µM	0.997
KHOS-NP, 1.111 µM	0.968
KHOS-NP, 3.333 µM	0.986
KHOS-NP, 10 µM	0.0142
RD, 0.00017 µM	1.09
RD, 0.00051 µM	1.1
RD, 0.00152 µM	1.12
RD, 0.00457 µM	1.11
RD, 0.01372 µM	1.1
RD, 0.04115 µM	1.14
RD, 0.1235 µM	1.13
RD, 0.3704 µM	1.15
RD, 1.111 µM	1.15
RD, 3.333 µM	0.976
RD, 10 µM	0.0128
RD-ES, 0.00017 µM	0.995
RD-ES, 0.00051 µM	0.98
RD-ES, 0.00152 µM	0.971
RD-ES, 0.00457 µM	0.9831
RD-ES, 0.01372 µM	0.976
RD-ES, 0.04115 µM	1.02
RD-ES, 0.1235 µM	1.015
RD-ES, 0.3704 µM	1.035
RD-ES, 1.111 µM	1.01
RD-ES, 3.333 µM	0.677
RD-ES, 10 µM	0.0137
SK-LMS-1, 0.00017 µM	1.03
SK-LMS-1, 0.00051 µM	1.05
SK-LMS-1, 0.00152 µM	1.02
SK-LMS-1, 0.00457 µM	1
SK-LMS-1, 0.01372 µM	1.043
SK-LMS-1, 0.04115 µM	1.03
SK-LMS-1, 0.1235 µM	1.07
SK-LMS-1, 0.3704 µM	0.989
SK-LMS-1, 1.111 µM	0.799
SK-LMS-1, 3.333 µM	0.574
SK-LMS-1, 10 µM	0.0101
SW684, 0.00017 µM	1.12
SW684, 0.00051 µM	1.1
SW684, 0.00152 µM	1.11
SW684, 0.00457 µM	1.11
SW684, 0.01372 µM	1.09
SW684, 0.04115 µM	1.076
SW684, 0.1235 µM	0.991
SW684, 0.3704 µM	0.8806
SW684, 1.111 µM	0.884
SW684, 3.333 µM	0.805
SW684, 10 µM	-0.0136
SW872, 0.00017 µM	0.997
SW872, 0.00051 µM	1.01
SW872, 0.00152 µM	1.01
SW872, 0.00457 µM	0.988
SW872, 0.01372 µM	1.01
SW872, 0.04115 µM	0.955
SW872, 0.1235 µM	0.961
SW872, 0.3704 µM	0.82
SW872, 1.111 µM	0.74
SW872, 3.333 µM	0.637
SW872, 10 µM	0.000233
SW1353, 0.00017 µM	0.939
SW1353, 0.00051 µM	0.945
SW1353, 0.00152 µM	0.946
SW1353, 0.00457 µM	0.944
SW1353, 0.01372 µM	0.926
SW1353, 0.04115 µM	0.946
SW1353, 0.1235 µM	0.898
SW1353, 0.3704 µM	0.7532
SW1353, 1.111 µM	0.628
SW1353, 3.333 µM	0.553
SW1353, 10 µM	0.0095
SYO-1, 0.00017 µM	0.953
SYO-1, 0.00051 µM	0.962
SYO-1, 0.00152 µM	0.952
SYO-1, 0.00457 µM	0.953
SYO-1, 0.01372 µM	0.923
SYO-1, 0.04115 µM	0.874
SYO-1, 0.1235 µM	0.828
SYO-1, 0.3704 µM	0.756
SYO-1, 1.111 µM	0.691
SYO-1, 3.333 µM	0.636
SYO-1, 10 µM	-0.0088

— the supplement of paper PMC10883282
